Source: a melting point compilation (Tetko et al.; mined from patent text by program, amines drawn as free bases though some values may be those of a salt)

First: COC(=O)CCCc1cc2cc(C(F)(F)F)ccc2n1S(=O)(=O)c1ccc2nc(C)sc2c1
Second: Cc1nc2cc(S(=O)(=O)n3c(CCCC(=O)O)cc4cc(C(F)(F)F)ccc43)ccc2s1
The melting point of the first is lower: 163 to 168 °C for the first, 171 to 178 °C for the second.

First: COC(=O)[C@H](Cc1cc(F)cc(F)c1)NC(=O)OC(C)(C)C
Second: CC(C)c1csc(NC(=O)OC(C)(C)C)c1C(=O)O
The melting point of the first is lower: 81 °C for the first, 205 to 206 °C for the second.

First: O=C(NN=Cc1ccncc1)OCc1ccccc1
Second: Cc1cccc(-c2ncc(NC(=O)OCc3ccccc3)c(=O)n2CC(=O)O)c1
The melting point of the first is lower: 134 °C for the first, 183 to 185 °C for the second.

Compared with `CCOC(=O)c1conc1-c1ccc(Cl)cc1`, `CCOC(=O)C1=NNc2ccc(-c3ccc(Cl)cc3)cc2C1` is higher in melting point: 43 to 45 °C for the first, 254 to 256 °C for the second.

First: COc1cc(O)cc2cc(-c3ccc(O)cc3)oc12
Second: O=c1cc(-c2ccc(O)cc2)oc2ccccc12
The melting point of the first is lower: 167 to 168 °C for the first, 177 to 180 °C for the second.

First: CC(=O)NCC1CN(c2ccc(N3CCN(c4nc5cc([N+](=O)[O-])ccc5o4)CC3)c(F)c2)C(=O)O1 (stereo unspecified)
Second: NCc1ccc(N2CCN(c3ccncc3)CC2)cc1
The melting point of the first is higher: 224 to 225 °C for the first, 168 to 170 °C for the second.

Compared with `CC(C)Nc1cccnc1N1CCN(C(=O)c2ccc(C(=O)N3CCSCC3)cc2)CC1`, `O=C(O)C(=O)c1ccc(OCC(=O)N2CCc3ccccc3C2)cc1` is higher in melting point: 163 to 164 °C for the first, 218 to 220 °C for the second.

First: O=C(O)CC1CCCC2CC(=O)NC12 (stereo unspecified)
Second: NC(=O)CN1C(=O)C[C@@H]2CCCC[C@@H]21 (relative stereo)
The melting point of the first is higher: 238 to 240 °C for the first, 145 to 146 °C for the second.

First: COc1ccc(-n2nc(Sc3ccc4ccccc4c3)c(C)c(C#N)c2=O)cc1
Second: O=C1C=CC(=C(c2ccc3ccccc3c2)c2ccc3ccccc3c2)O1
The melting point of the first is higher: 169 to 170 °C for the first, 138 to 140 °C for the second.

First: Cc1ccc(CC2CCN(C(=O)C(=O)Nc3ccc4[nH]c(=O)[nH]c4c3)CC2)cc1
Second: CCCCNC(=O)Nc1ccc(NC)cc1C(=O)NCC1CCN(C(c2ccccc2)c2ccccc2)CC1
The melting point of the first is higher: greater than 280 °C for the first, 203 to 204 °C for the second.

`COC(=O)COCc1cc2cc(C(F)(F)F)ccc2n1S(=O)(=O)c1ccccc1` and `COC(=O)CCCc1cc2nc(Cl)ccc2n1S(=O)(=O)c1cccc(OC)c1` cannot be ordered by melting point: 90 to 92 °C for the first, 90 °C for the second.

Compared with `CCOC(=O)c1ccc(-c2cc3c(Nc4ccc(F)c(Cl)c4)ncnc3[nH]2)cc1`, `CN(C)Cc1c(-c2ccc(O)cc2)[nH]c2ncnc(Nc3cccc(Cl)c3)c12` is lower in melting point: greater than 300 °C for the first, 269 to 271 °C for the second.

Compared with `O=[N+]([O-])c1ccc(C(O)c2ccccn2)cc1` (stereo unspecified), `CC(Cc1ccc(Cl)c(Cl)c1)C(=O)Nc1cccc2ncccc12` (stereo unspecified) is higher in melting point: 114 to 115 °C for the first, 168 to 170 °C for the second.

First: CC1(C)CCC(C)(C)c2cc(-c3cc(-c4ccc(C(=O)O)cc4)ccc3-c3ccccc3O)ccc21
Second: Cc1cccc(-c2nc(-c3ccc(S(C)(=O)=O)cc3)sc2-c2ccnc(Sc3ccccc3)c2)c1
The melting point of the first is higher: 161 to 163 °C for the first, 116 to 118 °C for the second.

Compared with `O=c1[nH]c2cc(Cl)ccc2c(O)c1-c1ccc(/C=C\c2ccccc2)cc1`, `Fc1ccc(-c2[nH]nc(C3=C[C@@H]4C[C@@H](c5ccccc5)CN4CC3)c2-c2ccncc2)cc1Cl` is lower in melting point: 284 to 286 °C for the first, 179 to 180 °C for the second.

First: O=C1CN(c2ccccc2)C(=O)N1C(=O)c1ccccc1Oc1ccccc1
Second: Cn1cc(-c2ccccc2)c(=S)c(-c2ccccc2)c1
The melting point of the first is lower: 127 to 128 °C for the first, 168 to 171 °C for the second.

First: Cc1cc(-c2ccc(C(F)(F)F)c(C)c2)nc(-c2cccc(-c3ccc(S(N)(=O)=O)s3)c2)n1
Second: NS(=O)(=O)c1ccc(-n2nc(C(F)F)cc2-c2nc3ccc(F)cc3s2)cc1
The melting point of the first is lower: 242 °C for the first, 255 °C for the second.

Compared with `C/C(=C\Cn1oc(=O)[nH]c1=O)c1cccc(OCc2nc(-c3ccc(OC(F)(F)F)cc3)oc2C)c1`, `Cc1oc2c(-c3ccc(F)cc3)c(-c3ccc(S(C)(=O)=O)cc3)nn2c1C` is higher in melting point: 145 to 146 °C for the first, 158 to 160 °C for the second.

First: CCNC(=O)/C=C1\CCc2ccc(F)cc21
Second: CN1C2C=C(c3ccc(F)cc3)CC1CC2 (stereo unspecified)
The melting point of the first is higher: 125 to 127 °C for the first, 62 to 63 °C for the second.

Compared with `CC(C)(C)OC(=O)CN(C(=O)CCl)c1ccccc1`, `CC(C)(C)OC(=O)c1ccsc1NC(=O)Nc1ccc(Oc2ccccc2)cc1` is higher in melting point: 86 °C for the first, 203 to 205 °C for the second.

Compared with `COc1ccc(C2c3c(C)c(N4CCC(c5ccc(OC)c(OC)c5)CC4)c(C)c(C)c3OC2(C)C)cc1` (stereo unspecified), `Cc1c(C)c2c(c(C)c1O)C(C(=O)O)C(C)(C)O2` (stereo unspecified) is higher in melting point: 154 to 156 °C for the first, 161 to 164 °C for the second.

`CN(C)Cc1nc(C(=O)N(C)C)nn1-c1ccc(Cl)cc1C(=O)c1ccccc1F` and `CN1C(=O)CN2CC(CCl)OC2(c2ccccc2)c2cc(Cl)ccc21` (stereo unspecified) fall in the same range of melting point: 140 to 142 °C for the first, 140 to 142 °C for the second.

First: Cc1noc(NS(=O)(=O)c2ccccc2C#N)c1Br
Second: Cc1nc(-c2ccccc2)cc(-c2cccc([N+](=O)[O-])c2)c1CBr
The melting point of the first is lower: 152 to 155 °C for the first, 155 to 157 °C for the second.

Compared with `CCCCC(=O)Oc1ccc(-c2ccc(C#N)cc2)cc1`, `[N-]=[N+]=NCC(O)COc1ccc(-c2ccccc2)cc1` (stereo unspecified) is higher in melting point: 36.5 to 36.9 °C for the first, 72.2 to 73.9 °C for the second.

First: [N-]=[N+]=Nc1nc(N)nc2nc[nH]c12
Second: CN(C)C=Nc1ncc(I)c(Cl)n1
The melting point of the first is higher: greater than 260 °C for the first, 99 to 100 °C for the second.

First: c1ccc2c(c1)SCCCN2N=C1CCNCC1
Second: CCC(=O)N1CCC(NC(=O)Nc2ccccc2F)CC1
The melting point of the first is lower: 113 to 115 °C for the first, 127 to 130 °C for the second.

Compared with `CNc1ncnc2c1ncn2C1OC(CO)C(O)C1O` (stereo unspecified), `CCOC(=O)c1nc(NCC(c2ccccc2)c2ccccc2)c2ncn([C@@H]3O[C@H](CO)[C@@H](O)[C@H]3O)c2n1` is lower in melting point: 202 °C for the first, 118 to 120 °C for the second.

First: O=C1NC(=O)C(c2c[nH]c3ccccc23)=C1C(=O)c1cn2c3c(cccc13)CCC2
Second: O=C(Nc1cccc2c(=O)cc(C(=O)O)oc12)c1ccc2oc(COCc3ccccc3)cc2c1
The melting point of the first is higher: greater than 300 °C for the first, 215 to 218 °C for the second.

Compared with `COc1ccccc1Oc1c(NS(=O)(=O)c2cccs2)nc(-c2ncccn2)nc1OCCOc1ncc(Br)cn1`, `COC(=O)C=C(OC)c1ccccc1OCc1csc(-c2ccc(F)cc2)n1` is lower in melting point: greater than 300 °C for the first, 105 to 108 °C for the second.

First: CON=C(C[N+](=O)[O-])NCc1cccnc1
Second: CCCn1c(CC)ccc1Cc1cccc(NC(N)=O)c1
The melting point of the first is higher: 77 to 78 °C for the first, 59 to 61 °C for the second.

First: Cc1cc(C)c(C#N)c(SSc2ccc([N+](=O)[O-])cc2C(Cl)(Cl)Cl)n1
Second: CC(C(=O)O)c1cc([N+](=O)[O-])ccc1F (stereo unspecified)
The melting point of the first is higher: 132 °C for the first, 88 to 90 °C for the second.

Going from `CCOC(=O)c1c(NC(=O)NCC(=O)OC)sc(C)c1C` to `CCONC(=O)NNC(=O)CC`, the melting point falls from 151 °C to 122 °C.

Compared with `COC(=O)c1ccc(-c2nc(NCc3ccc4c(c3)OCO4)c3c4c(sc3n2)CCCC4)cc1`, `CS(=O)(=O)c1ccc(-c2cnn(C3CCCCC3)c(=O)c2-c2ccc(F)cc2)cc1` is lower in melting point: 198 °C for the first, 169 to 171 °C for the second.

First: CN(CCc1ccccc1)C(=O)C(C)(Cc1c[nH]c2ccccc12)NC(=O)OC1C2CC3CC(C2)CC1C3 (stereo unspecified)
Second: O=C(CCCCc1cc(O)c(O)c([N+](=O)[O-])c1)NC12CC3CC(CC(C3)C1)C2
The melting point of the first is lower: 90 to 95 °C for the first, 157 to 160 °C for the second.

Compared with `CCCCCCCCCCCCc1c[nH]c(C(=O)NN)c1`, `C#Cc1cnc2sc(S(=O)(=O)CCCCCCC)nn2c1=O` is higher in melting point: 137 to 140 °C for the first, 180 to 182 °C for the second.

Compared with `CC(=O)OC(c1cn2c(nc3ccccc32)s1)C1(Br)C(=O)N2C(C(=O)OCc3ccc([N+](=O)[O-])cc3)=CS[C@@H]21` (stereo partly specified), `COC(=O)CSCc1sccc1S(=O)(=O)N(C)c1cccc2cc(-c3nccs3)[nH]c12` is higher in melting point: 78 °C for the first, 126 °C for the second.

First: CC1COCc2nc3c(N)nc4ccc(OCC(=O)N5CCOCC5)cc4c3n21 (stereo unspecified)
Second: C[C@H]1CN(c2c(F)cc3c(=O)c(C(=O)O)cn(C4CC4)c3c2Br)C[C@H]1N (relative stereo)
The melting point of the first is higher: 226 to 228 °C for the first, 186 to 190 °C for the second.

Compared with `NC1C=CC=CN1NS(=O)n1ccnc1` (stereo unspecified), `Cn1nc(-c2ccccc2C=O)c2ccccc21` is lower in melting point: 174 to 175 °C for the first, 106 °C for the second.

`NNc1ccnc2c(NC(=O)c3c(Cl)cccc3Cl)cc(Cl)cc12` and `Cc1c(-c2ccccc2)sc2c(Cl)c(Cl)c(O)cc12` cannot be ordered by melting point: 142 to 150 °C for the first, 146 to 147 °C for the second.

First: O=C1CCC2(F)C3Cc4ccc(O)c5c4C2(CCN3CC2CC2)C1O5 (stereo unspecified)
Second: CCN(CCO)CCCC1CCN(S(=O)(=O)c2ccc(C(F)(F)F)cc2)CC1
The melting point of the first is higher: 188 to 190 °C for the first, 71.3 to 72.7 °C for the second.

Compared with `COc1ccc(OCC(C)Oc2ccc(OC)cc2)cc1` (stereo unspecified), `CC(C)NCCCCCOc1ccc(O)cc1` is higher in melting point: 84 to 84.5 °C for the first, 95 to 99 °C for the second.

First: CC1OC(OCc2ccccc2)C(F)C(O)C1O (stereo unspecified)
Second: CCOC(=O)Nc1ccc2ccccc2c1
The melting point of the first is higher: 124 to 126 °C for the first, 69 to 70.5 °C for the second.

First: COc1cc(C(=O)CBr)cc(OC)c1OC(C)=O
Second: CCC(=O)NC(=O)Nc1ccc(OC)c(OC)c1
The melting point of the first is lower: 124 to 126 °C for the first, 193 to 197 °C for the second.

First: C#CCN1C(=O)COc2cc(F)c(N(C(=O)CCl)C(=O)C3=C(C(=O)OC)CCCC3)cc21
Second: Cn1c(C(F)(F)F)cc(=O)n(-c2cc(OS(C)(=O)=O)c(Cl)cc2F)c1=O
The melting point of the first is lower: 156 to 158 °C for the first, 176 to 178 °C for the second.

First: Cn1ncc(N)c1C(N)=O
Second: CC(C)(S)CNC(=O)c1nccnc1C(=O)O
The melting point of the first is higher: 158 to 160 °C for the first, 141 to 144 °C for the second.

First: CCCCSc1ccc2c3c(cccc13)C(=O)N2
Second: Cc1ccc(C2C(=O)CC(C)(C)CC2=O)cc1
The melting point of the first is lower: 126 to 129 °C for the first, 200 to 202 °C for the second.

First: O=S1(=O)CCN2C=CC=C(c3ccc(Oc4ccc(Cl)cc4)cc3)C2=N1
Second: NS(=O)(=O)c1cc(C(=O)O)cc([N+](=O)[O-])c1Nc1ccc(Cl)cc1
The melting point of the first is lower: 232 to 234 °C for the first, 241 to 243 °C for the second.

First: COC(=O)c1nc2cccc(C(F)(F)F)c2c(O)c1C(=O)OC
Second: CC(=O)N(C(C)=O)c1nsc2ccccc12
The melting point of the first is higher: 180 to 182 °C for the first, 65 to 67 °C for the second.

First: O=C(O)c1cc(Br)cc2c1NCCS2(=O)=O
Second: COCCCn1nnnc1-c1ccc(O)c(Br)c1O
The melting point of the first is higher: 250 to 251 °C for the first, 174 to 175 °C for the second.

Compared with `Cc1ccc(S(=O)(=O)OCC(C)O)cc1` (racemic), `COc1cc(C(C)=O)ccc1OCCCCCCl` is higher in melting point: 49.5 to 50 °C for the first, 57 to 58 °C for the second.

Work on `C=CS(=O)(=O)CCC(F)(F)C(F)(F)C(F)(F)C(F)(F)C(F)(F)C(F)(F)C(F)(F)C(F)(F)F` yielded a melting point of 96 to 97 °C.
